Molecules are shown by their SMILES.

The subject of one assay is lymphocytes (fresh spleen cells). Description: Lymphocyte proliferation assay (ConA-induced spleen cells). In kind it is cell-based, rat. To be noted: Rattus norvegicus; inhibition of lymphocyte proliferation, 5 μg/mL ConA, 48 hours. How it is done:
Lymphocytotoxicity test: rats were euthanized by spinal dislocation method, their spleens were aseptically removed and ground to make a single cell suspension. After removing red blood cells with 2 mL of red blood cell lysis buffer, the cell concentration was adjusted to 2×10^6 cells/mL using RPMI-1640 medium containing 10% fetal bovine serum (FBS). Next, 100 μL of the 2×10^6 cells/mL cell suspension and 100 μL of the appropriate concentration of the tested compound were added to each well of a 96-well plate, and the plate was incubated at 37° C. with 5% CO2 for 48 hours. At the end of the incubation period, 10 μL of CCK8 was added to each well, and the plate was returned to the incubator for 5-7 hours. The OD450 value was then measured at 450 nm using an enzyme-linked immunosorbent assay reader.
Lymphocyte proliferation assay: fresh spleen cells at a concentration of 2×10^6 cells/mL were incubated for 48 hours in an incubator maintained at 37° C. and 5% CO2 for 48 hours, and the culture medium was induced for cell proliferation with 5 μg/mL of ConA, and the appropriate concentration of the tested compound was added to test its inhibitory activity on lymphocyte proliferation. The test results of some compounds are shown in the table below and figures accompanying the application: […]
The term IC50 denotes the concentration that gives 50% inhibition. Read a high IC50 as weaker potency. In turn, `O=C(NCc1cccnc1)c1csc(C(=O)c2c[nH]c3ccccc23)n1` [IIA-6] registered an IC50 of 479 ± 14.2 nM.
Still for that read-out and setting: to `O=C(c1nc(C(=O)N2CCCCC2C(=O)O)cs1)c1c[nH]c2ccccc12` (centres unmarked) [IIA-22] belongs 479 ± 9.88 nM.
Regarding `O=C(c1nc(C(=O)N2C[C@H](O)C[C@H]2C(=O)O)cs1)c1c[nH]c2ccccc12` [IIA-23], the IC50 was found to be 439 ± 25.3 nM.
The same measure, in the same setting: to `O=C(NC(CO)C(=O)O)c1csc(C(=O)c2c[nH]c3ccccc23)n1` (centres unmarked) [IIA-24] belongs 421 ± 19.9 nM; to `O=C(OCc1cn(CCCCCCBr)nn1)c1csc(C(=O)c2c[nH]c3ccccc23)n1` [IIB-3], 468 ± 20.1 nM; to `C=CC[C@@H]1/C=C(\C)C[C@H](C)C[C@H](OC)[C@H]2O[C@@](O)(C(=O)C(=O)N3CCCC[C@H]3C(=O)O[C@H](/C(C)=C/[C@@H]3CC[C@@H](O)[C@H](OC)C3)[C@H](C)[C@@H](O)CC1=O)[C@H](C)C[C@@H]2OC` [Tacrolimus, reference compound], 504 ± 16.2 nM.

The assay is the same for the next values; noted with them: lymphocyte proliferation induced with 5 μg/mL ConA, 48 hours; test concentration not given.
`O=C(NCc1cccnc1)c1csc(C(=O)c2c[nH]c3ccccc23)n1` [IIA-6]: the “Inhibition rate (%)” value is listed as 56.46%.
On to `CC1CCC2(OC1)OC1CC3C4CC=C5CC(OC(=O)c6csc(C(=O)c7c[nH]c8ccccc78)n6)CCC5(C)C4CCC3(C)C1C2C` (centres unmarked) [IIA-7], for which the “Inhibition rate (%)” value was determined as 38.74%.
On the same count and under the same terms, to `CC(C)CCCC(C)C1CCC2C3CC=C4CC(OC(=O)c5csc(C(=O)c6c[nH]c7ccccc67)n5)CCC4(C)C3CCC12C` (centres unmarked) [IIA-8] belongs 50.45%; to `CCC(CCC(C)C1CCC2C3CC=C4CC(OC(=O)c5csc(C(=O)c6c[nH]c7ccccc67)n5)CCC4(C)C3CCC12C)C(C)C` (centres unmarked) [IIA-9], 48.2%; to `CC1CCC2(OC1)OC1CC3C4CC=C5CC(NC(=O)c6csc(C(=O)c7c[nH]c8ccccc78)n6)CCC5(C)C4CCC3(C)C1C2C` (centres unmarked) [IIA-10], 23.57%.
As for `Cc1c(COC(=O)c2csc(C(=O)c3c[nH]c4ccccc34)n2)cccc1-c1ccccc1` [IIA-11], the “Inhibition rate (%)” value stood at 25.08%.
Still for that read-out and setting: then `CC(=O)NCCNC(=O)c1csc(C(=O)c2c[nH]c3ccccc23)n1` [IIA-12], with 27.93%; and `COC(=O)C(CO)NC(=O)c1csc(C(=O)c2c[nH]c3ccccc23)n1` (centres unmarked) [IIA-13], with 43.99%; and `O=C(NCc1ccc(F)cc1F)c1csc(C(=O)c2c[nH]c3ccccc23)n1` [IIA-14], with 37.99%.
On the same count and under the same terms, then `O=C(NCCCN1CCCC1)c1csc(C(=O)c2c[nH]c3ccccc23)n1` [IIA-15], with 28.53%.
Take `O=C(Nc1cccnc1)c1csc(C(=O)c2c[nH]c3ccccc23)n1` [IIA-17]: the “Inhibition rate (%)” value is 59.31%.
Still for that read-out and setting: then `O=C(c1nc(C(=O)N2CCC[C@H]2c2ccccc2)cs1)c1c[nH]c2ccccc12` [IIA-18], with 50.6%; and `O=C(NCc1ccccc1)c1csc(C(=O)c2c[nH]c3ccccc23)n1` [IIA-19], with 46.55%; and `O=C(NCCc1ccncc1)c1csc(C(=O)c2c[nH]c3ccccc23)n1` [IIA-20], with 42.64%.
On the same count and under the same terms, then `O=C(c1nc(C(=O)N2CCC[C@H]2c2ccncc2)cs1)c1c[nH]c2ccccc12` [IIA-21], with 54.35%.
On the same count and under the same terms, then `O=C(c1nc(C(=O)N2CCCCC2C(=O)O)cs1)c1c[nH]c2ccccc12` (centres unmarked) [IIA-22], with 53.75%; and `O=C(c1nc(C(=O)N2C[C@H](O)C[C@H]2C(=O)O)cs1)c1c[nH]c2ccccc12` [IIA-23], with 58.56%.
Turning to `O=C(NC(CO)C(=O)O)c1csc(C(=O)c2c[nH]c3ccccc23)n1` (centres unmarked) [IIA-24], the “Inhibition rate (%)” value worked out at 59.91%.
Same read-out and setting: to `COC(=O)C1CCCCN1C(=O)c1csc(C(=O)c2c[nH]c3ccccc23)n1` (centres unmarked) [IIA-25] belongs 49.85%.
For the compound `COC(=O)[C@@H]1C[C@@H](O)CN1C(=O)c1csc(C(=O)c2c[nH]c3ccccc23)n1` [IIA-26], the “Inhibition rate (%)” value is 45.05%.
The same measure, in the same setting: to `O=C(NCC(F)(F)F)c1csc(C(=O)c2c[nH]c3ccccc23)n1` [IIA-27] belongs 51.8%.
In the case of `O=C(c1nc(C(=O)N2CCCC2c2cc(F)ncc2F)cs1)c1c[nH]c2ccccc12` (centres unmarked) [IIA-28], the “Inhibition rate (%)” value was 54.05%.
Turning to `O=C(NCCC(F)(F)F)c1csc(C(=O)c2c[nH]c3ccccc23)n1` [IIA-29], the “Inhibition rate (%)” value was 43.54%.
On the same count and under the same terms, then `CC(C)=CCC/C(C)=C/CNC(=O)c1csc(C(=O)c2c[nH]c3ccccc23)n1` [IIA-30], with 26.88%; and `O=C(OCc1cn(CCc2ccccc2)nn1)c1csc(C(=O)c2c[nH]c3ccccc23)n1` [IIB-1], with 45.65%; and `O=C(OCc1cn(Cc2ccc3ccccc3c2)nn1)c1csc(C(=O)c2c[nH]c3ccccc23)n1` [IIB-2], with 49.4%.
Same read-out and setting: then `O=C(OCc1cn(CCCCCCBr)nn1)c1csc(C(=O)c2c[nH]c3ccccc23)n1` [IIB-3], with 39.79%; and `O=C(OCc1cn(CCCCCCO)nn1)c1csc(C(=O)c2c[nH]c3ccccc23)n1` [IIB-4], with 21.17%.
As to `O=C(OCc1cn(CC23CC4CC(CC(C4)C2)C3)nn1)c1csc(C(=O)c2c[nH]c3ccccc23)n1` [IIB-5], the “Inhibition rate (%)” value amounted to 59.01%.
Still for that read-out and setting: to `COC(=O)c1csc(C(=O)c2c[nH]c3ccccc23)n1` [ITE, reference compound] belongs 57.96%; to `Nc1ccccc1C(=O)CC(N)C(=O)O` (centres unmarked) [KYN, kynurenine, reference compound], 51.65%; to `C=CC[C@@H]1/C=C(\C)C[C@H](C)C[C@H](OC)[C@H]2O[C@@](O)(C(=O)C(=O)N3CCCC[C@H]3C(=O)O[C@H](/C(C)=C/[C@@H]3CC[C@@H](O)[C@H](OC)C3)[C@H](C)[C@@H](O)CC1=O)[C@H](C)C[C@@H]2OC` [Tacrolimus, reference compound], 57.54%.

The values above are taken from patent US20230391783A1, “COMPOUND CONTAINING 2,4-THIAZOLE RING, PREPARATION METHOD THEREFOR, AND APPLICATION THEREOF” (SHANDONG UNIVERSITY, priority 2021, published 2023).
